Key:
[1] = tested on: RAW 264.7 cells; assay: NO production of LPS-challenged RAW 264.7 cells transfected with miR mimics; type: cell-based, murine
Method: Murine RAW 264.7 macrophage-derived cell line known to express TLR4 and respond to endotoxin by production of pro-inflammatory mediators such as Nitric Oxide (NO), prostaglandins, and cytokines as ILE IL6, and TNFalpha were used (described in the preceding examples e.g., Examples 7 and 8). Cells were grown in 5 ml flasks in a humidified atmosphere in Dulbecco's modified Eagle's medium (DMEM, Biological Industries) supplemented with 10% fetal calf serum (FCS) and 2 mM L-glutamine at 37° C., 5% CO2.
Griess method was used to determine NO2 levels in medium in which macrophages had been cultured. 100 μl of each sample+100 μl of Griess reagent (1% sulfanilamide/0.1% naphthylethylenediamine dihydrochloride/2.5% H3PO4)—were incubated 10-20 min at room temperature. Read absorbance at 546 nm in micro-ELISA reader.
miR 132 and 182* (SEQ ID NOs: 54 and 93, respectively) were LNA modified (products are designated with SEQ ID NOs. 107 and 108, respectively). A locked nucleic acid (LNA), often referred to as inaccessible RNA, is a modified RNA. Ribose moiety of LNA nucleotide is modified with an extra bridge connecting 2′ and 4′ carbons. The bridge “locks” the ribose in 3′-endo structural conformation, which is often found in A-form of DNA or RNA. LNA nucleotides can be mixed with DNA or RNA bases in the oligonucleotide whenever desired. The locked ribose conformation enhances base stacking and backbone pre-organization.
electroporation and lipofection were used for cell transfection.
Oligos containing LNA modifications on every third base (Table 4) were obtained from Sigma-Proligo. Transfection was performed with Lipofectamine 2000 (Invitrogen, Carlsbad, Calif.) using 3 μg of oligo per sample. Briefly, cells were brought to 80%-90% confluence at the time of transfection. For each transfection sample, 3 μg oligo were diluted in 1 ml of RPMI-1640 while the lipofectamine reagent was diluted in 1 ml of RPMI-1640. After 5 minutes the diluted oligo and lipofectamine were combined and incubated for 20 minutes. This was added to the cells within the 75 ml flask, containing 6 ml RPMI complete+GM-CSF ([…] final oligo concentration). […]
To determine cell viability 40 μl of thiazolyl blue tetrazolium bromide (MTT) reagent (Sigma) at 5 mg/ml was added per sample well, incubated for 30 minutes at 37° C. Medium was removed, 400 μl of DMSO was added per well and absorbance read at 550 nm Griess method was used to determine NO2 levels in conditioned medium from macrophage cultures. […] Absorbance was read at 546 nm in a micro-ELISA reader. TNF-α, IL-6 levels were measured by Enzyme-Linked Immunosorbent Assay (ELISA) according to manufacturer's procedures (R&D Systems kits, MTA00, M6000B, respectively). All absorbance results were normalized using standard curves. […]

[2] = tested on: AChE-S mRNA; assay: AChE-S mRNA by QRT-PCR in transfected primary human macrophages; type: cell-based; details: primary human macrophages transfected with LNA-modified oligo
Method: (§1) Primary human macrophages obtained from donors using methods which are well known in the art.
(§2) anti132 is set forth in CG+ACC+ATG+GCT+GTA+GAC+TGT+TA (SEQ ID NO: 109), anti182 is set forth in 5′T+AgT+Tgg+CAA+gTC+TAg+AAC+CA3′(SEQ ID NO: 110), whereby LNA modification is marked as + before the modified nucleotide.
(§3) RT was performed using SuperScript III kit reagents (Invitrogen) as per kit instructions, and ABI-7900HT (Applied Biosystems) equipped with dedicated software (ver. 2) was used to amplify the resulting cDNA template (SYBR Green I RNA amplification kit, Roche). Triplicate values of each treatment were normalized to β-actin mRNA.

[3] = tested on: AChE-R mRNA; assay: AChE-R mRNA by QRT-PCR in transfected primary human macrophages; type: cell-based; details: primary human macrophages transfected with LNA-modified oligo
Method: as §1, §2, §3

[4] = tested on: 3′UTR fragment of human AChE cDNA; assay: Dot blot hybridization of LNA-modified oligos with PCR-amplified AChE 3′UTR; type: binding; details: 5′-32P-labeled LNA-modified oligos
Method: The common AChE 3′-UTR sequence was obtained from AY750146 (all mRNA sequence beginning from stop codon). 3′-UTR of AChE was amplified by RT-PCR using Promega reagents and total RNA isolated with QIAGEN RNeasy kit from post-mortem human brain, with primers including XhoI, NotI restriction sites in 5′ and 3′ primer, respectively. Primer sequences used were: (5′): […], (3′) (SEQ ID NO: 111): […] (SEQ ID NO: 112). Annealing temperature of 57° C. was used. PCR product was purified with QIAGEN QiaQuick kit, size of fragment verified in agarose gel, spotted on a dry HyBond nylon membrane in 2 ul drops, cross-linked to the membrane using 1200 mJ UV burst, and baked for 1 hr at 80° C. Membrane was blocked for at least 2 hours in solution containing 50% deionized formamide, 5×SSPE, 0.5% SDS, 5×Denhardt's Solution at 50° C.; and hybridized o/night in same conditions with 5′-32P-labeled probes mimicking miRs wholly or with mismatches as indicated, washed 4 times at 37° C. in 3×SSPE, 5% SDS, 10×Denhardt's solution; once at 42° C. in 1×SSPE, 1% SDS; exposed over up to 3 days to a PhosphorImager (Molecular Dynamics/GE Healthcare) plate, and signal quantified using FujiFilm's ImageGauge 4 software.

[5] = tested on: U937 cells; assay: Nitric oxide production (Griess) in U937 cells; type: cell-based, human; details: 24 h, 1 μg/ml LPS, 100 μM ACh
[6] = tested on: NFκB; assay: NFκB localisation by immunohistochemistry in mouse bone marrow macrophages; type: cell-based; details: LPS, LPS+ACh
[7] = tested on: IL-6; assay: IL-6 production by peritoneal macrophages from FVB/N and TgR mice; type: cell-based, mouse; details: 100 μM ACh
[8] = tested on: IL-12; assay: IL-12 production by peritoneal macrophages from FVB/N and TgR mice; type: cell-based, mouse
[9] = tested on: TNFα; assay: TNFα production by peritoneal macrophages from FVB/N and TgR mice; type: cell-based, mouse
[10] = tested on: IL-1β, TNFα; assay: IL-1β, TNFα production (ELISA) by bone marrow dendritic cells from FVB/N and TgR mice; type: cell-based, mouse; details: TgR dendritic cells, LPS and ACh
[11] = tested on: Inducible Nitric Oxide Synthetase (iNOS); assay: iNOS by QRT-PCR in transfected primary human macrophages; type: cell-based; details: primary human macrophages transfected with LNA-modified oligo
Method: as §1, §3

Row | Compound | activation of macrophage cell lines by LPS (NO production) after transfection ([1]; LPS-exposed RAW-264.7 cells transfected with oligo (Example 13)) | endotoxin response (NO production) after transfection ([1]; RAW 264.7 cells transfected or electroporated, then endotoxin challenge (Example 11)) | AChE-S mRNA levels [2] | AChE-R mRNA levels [3] | binding to PCR-amplified AChE 3′UTR (dot blot signal) [4] | nitric oxide (NO) levels [5] | relocation of NFκB from the cytoplasm to the nucleus [6] | LPS-induced IL6 increase on co-administration of ACh [7] | IL-12 levels on co-administration of ACh with LPS ([8]; TgR macrophages) | IL-12 levels on co-administration of ACh with LPS ([8]; wild-type macrophages) | LPS-induced increase in TNFα on co-administration of ACh [9] | up-regulation of inflammatory cytokines with ACh [10] | iNOS expression [11]
1 | miR-132 mimic: LNA-modified oligo mimicking miR-132: TA+ACA+GTC+TAC+AGC+CAT+GGT+CG (TAACAGTCTACAGCCATGGTCG; LNA at 3, 6, 9, 12, 15, 18, 21, other sugars and backbone not given here) | significantly attenuate the activation of macrophage cell lines by LPS | significantly attenuate endotoxin response | dramatic decline | dramatic decline | significant binding to 20 ng doses of PCR product |  |  |  |  |  |  |  | 
2 | CC(=O)OCC[N+](C)(C)C.[Cl-] [ACh, Acetylcholine chloride] |  |  |  |  |  | reduced NO levels, and blocked the LPS-induced increases | significantly attenuated this effect | prevented this increase | elevated in TgR macrophages | significantly lowered | significantly attenuated the LPS-induced increase in TNFα | not ACh-preventable | 
3 | anti-132: LNA-modified reverse-complementary oligo CG+ACC+ATG+GCT+GTA+GAC+TGT+TA (CGACCATGGCTGTAGACTGTTA; LNA at 3, 6, 9, 12, 15, 18, 21, other sugars and backbone not given here) |  |  | increase in mRNA levels, albeit of the AChE-S variant alone |  |  |  |  |  |  |  |  |  | up-regulation of Inducible Nitric Oxide Synthetase (iNOS)
